In patent EP4610269A1, “UROKINASE PLASMINOGEN ACTIVATOR SURFACE RECEPTOR (UPAR) LIGANDS FOR DIAGNOSTIC OR THERAPEUTIC USE” (3B Pharmaceuticals GmbH, priority 2024, dated 2025):
*1 amine or outer side, *2 acyl side, *3 side chain or, on linkers, in order; H or OH if unused. Where a SMILES comes first, the peptide text is derived from it. Bridges are numbered along the chain shown (N, C = ends). [ ]: non-standard residue; d: D form. The star is where a group is joined. DOTA = O=C(O)CN1CCN(CC(=O)O)CCN(CC(=O)*)CCN(CC(=O)O)CC1; Bta = N[C@@H](Cc1csc2ccccc12)C(=O)O; Hyp = O=C(O)[C@@H]1C[C@@H](O)CN1; Pentanoyl(4-Me) = CC(C)CCC(=O)*; X1 = O=C(CN1CCN([*:1])CC1)[*:2]; Cit = NC(=O)NCCC[C@H](N)C(=O)O; Propanoyl(3-OH) = O=C(CCO)*; dNle = CCCC[C@@H](N)C(=O)O; NMeS = CN[C@@H](CO)C(=O)O; Nle = CCCC[C@H](N)C(=O)O; Nva = CCC[C@H](N)C(=O)O; Pentanoyl = CCCCC(=O)*; Aib = CC(C)(N)C(=O)O

Assays:
[1] = biological target: T1, uPAR-expressing HEC-265 human endometrial adenocarcinoma cells (Homo sapiens, UniProt Q03405); test: Competitive FACS binding assay; settings: pIC50 category of FACS binding
T1 construct: Cell surface uPAR-expressing HEC-265 human endometrial adenocarcinoma cells; host or cells: HEC-265
How it was run: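 Competitive displacement of a 10 nM biotinylated peptide from HEC-265 cells (1 h, 4 °C, PBS/1% BSA), detected via APC-streptavidin by flow cytometry. pIC50 from four-parameter logistic fit of median fluorescence versus concentration.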

human uPAR (uPAR-Fc) = biological target: T2, human uPAR (uPAR-Fc) (Homo sapiens, UniProt Q03405); test: Surface plasmon resonance (SPR) assay, single cycle kinetics; format: binding; settings: pKD category for uPAR SPR activity assay; uPAR-Fc on Protein A-Chip, 25°C; read-out: pKD CAT (converted)
T2 construct: comprising amino acids Leu23-Arg303 according to UniProt entry Q03405.1; purchased R&D Systems 10378-UK-100
How it was run: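 uPAR-Fc (Leu23-Arg303 extracellular domains, human IgG1 Fc) captured on Protein A chip to ~2000 RU; single-cycle kinetics at 25°C in HEPES running buffer pH 7.4 with 0.1% DMSO. KD from double-referenced sensorgrams fitted to 1:1 Langmuir model, reported as pKD.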

T2 sequence (Q03405 23-303): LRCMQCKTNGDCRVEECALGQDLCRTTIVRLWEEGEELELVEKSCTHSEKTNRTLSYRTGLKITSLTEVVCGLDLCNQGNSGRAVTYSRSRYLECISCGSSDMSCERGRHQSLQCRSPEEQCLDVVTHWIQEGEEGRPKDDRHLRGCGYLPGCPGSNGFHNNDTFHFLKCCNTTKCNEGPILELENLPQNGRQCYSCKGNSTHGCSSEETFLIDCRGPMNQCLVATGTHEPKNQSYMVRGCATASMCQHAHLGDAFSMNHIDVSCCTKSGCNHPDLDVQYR
T1 sequence (Q03405 23-335): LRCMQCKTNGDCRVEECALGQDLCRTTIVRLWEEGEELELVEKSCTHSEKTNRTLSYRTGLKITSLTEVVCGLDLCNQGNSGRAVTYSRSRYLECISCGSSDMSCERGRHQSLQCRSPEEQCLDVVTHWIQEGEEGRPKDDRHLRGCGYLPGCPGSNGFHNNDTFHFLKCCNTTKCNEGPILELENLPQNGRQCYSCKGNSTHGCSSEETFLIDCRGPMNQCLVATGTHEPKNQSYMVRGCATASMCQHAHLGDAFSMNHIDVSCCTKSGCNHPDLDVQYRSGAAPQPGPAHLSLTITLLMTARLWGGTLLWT

Structure (SMILES)	IC50 [1]	Kd (human uPAR (uPAR-Fc))
CCCCC(=O)N[C@H]1CSSC[C@@H](C(N)=O)NC(=O)[C@H](CCC)NC(=O)[C@H]([C@@H](C)CC)NC(=O)CN2CCN(CC2)C(=O)[C@H](Cc2ccccc2)NC(=O)[C@H](Cc2ccc(O)cc2)NC(=O)[C@H](CCC(N)=O)NC(=O)[C@H](CCCNC(=N)N)NC1=O [UPAR-271, Pent-[Cys-Arg-Gln-Tyr-Phe-PPAc-Ile-Nva-Cys]-NH2] (Pentanoyl-CRQYF[X1]I[Nva]C-NH2; disulfide 1-9)	≥ 126 nM	> 100 nM
CCCCC(=O)N[C@H]1CSSC[C@@H](C(N)=O)NC(=O)[C@H](CCC)NC(=O)[C@H]([C@@H](C)CC)NC(=O)[C@@H]2C[C@@H](O)CN2C(=O)[C@@H]2CCCN2C(=O)[C@H](Cc2csc3ccccc23)NC(=O)[C@H](Cc2ccc(O)cc2)NC(=O)[C@H](CCC(N)=O)NC(=O)[C@H](CCCNC(=N)N)NC1=O [UPAR-273, Pent-[Cys-Arg-Gln-Tyr-Bta-Pro-Hyp-Ile-Nva-Cys]-NH2] (Pentanoyl-CRQY[Bta]P[Hyp]I[Nva]C-NH2; disulfide 1-10)	≤ 10 nM	< 1.58 nM
CCCCC(=O)N[C@H]1CSSC[C@@H](C(N)=O)NC(=O)[C@H](CCC)NC(=O)[C@H]([C@@H](C)CC)NC(=O)[C@H](CO)N(C)C(=O)[C@@H]2CCCN2C(=O)[C@H](Cc2ccccc2)NC(=O)[C@H](Cc2ccc(O)cc2)NC(=O)[C@H](CCCCNC(=O)CN2CCN(CC(=O)O)CCN(CC(=O)O)CCN(CC(=O)O)CC2)NC(=O)[C@H](CCCNC(N)=O)NC1=O [UPAR-277, Pent-[Cys-Cit-Lys(DOTA)-Tyr-Phe-Pro-Nms-Ile-Nva-Cys]-NH2] (Pentanoyl-C[Cit]K(DOTA)YFP[NMeS]I[Nva]C-NH2; disulfide 1-10)	39.8 to 100 nM	10 to 100 nM

The next lines start with the values.

IC50 [1]	Kd (human uPAR (uPAR-Fc))	Structure (SMILES)
12.6 to 31.6 nM	1.58 to 10 nM	CC[C@H](C)[C@@H]1NC(=O)[C@@H](C)NC(=O)[C@@H]2CCCN2C(=O)[C@H](Cc2ccccc2)NC(=O)[C@H](Cc2ccc(O)cc2)NC(=O)C(C)(C)NC(=O)[C@H](CCCNC(N)=O)NC(=O)[C@@H](NC(=O)CCC(C)C)CSSC[C@@H](C(N)=O)NC(=O)[C@H](CC(C)C)NC1=O [UPAR-269, iHex-[Cys-Cit-Aib-Tyr-Phe-Pro-ala-Ile-Leu-Cys]-NH2] ({Pentanoyl(4-Me)}-C[Cit][Aib]YFP[dA]ILC-NH2; disulfide 1-10)
≤ 10 nM	< 1.58 nM	CCCC[C@@H]1NC(=O)[C@H](CCCNC(=N)N)NC(=O)[C@@H](NC(=O)[C@H](CC(C)C)NC(=O)[C@H](CC(=O)O)NC(C)=O)CSSC[C@@H](C(N)=O)NC(=O)[C@H](CC(C)C)NC(=O)[C@H]([C@@H](C)CC)NC(=O)[C@H](C)NC(=O)[C@@H]2CCCN2C(=O)[C@H](Cc2ccccc2)NC(=O)[C@H](Cc2ccc(O)cc2)NC1=O [UPAR-270, Ac-Asp-Leu-[Cys-Arg-Nle-Tyr-Phe-Pro-Ala-Ile-Leu-Cys]-NH2] (Ac-DLCR[Nle]YFPAILC-NH2; disulfide 3-12)
39.8 to 100 nM	> 100 nM	CC[C@H](C)[C@@H]1NC(=O)[C@@H](C)NC(=O)[C@@H]2CCCN2C(=O)[C@H](Cc2ccccc2)NC(=O)[C@H](Cc2ccc(O)cc2)NC(=O)[C@H](CCC(N)=O)NC(=O)[C@H](CCCNC(N)=O)NC(=O)[C@@H](NC(=O)CCO)CSSC[C@@H](C(N)=O)NC(=O)[C@H](CC(C)C)NC1=O [UPAR-272, HPA-[Cys-Cit-Gln-Tyr-Phe-Pro-ala-Ile-Leu-Cys]-NH2] ({Propanoyl(3-OH)}-C[Cit]QYFP[dA]ILC-NH2; disulfide 1-10)
12.6 to 31.6 nM	1.58 to 10 nM	CCCC[C@H]1NC(=O)[C@H](CCCNC(=N)N)NC(=O)[C@@H](NC(=O)[C@H](CC(C)C)NC(=O)[C@H](CC(=O)O)NC(C)=O)CSSC[C@@H](C(N)=O)NC(=O)[C@H](CC(C)C)NC(=O)[C@H]([C@@H](C)CC)NC(=O)[C@H](C)NC(=O)[C@@H]2CCCN2C(=O)[C@H](Cc2ccccc2)NC(=O)[C@H](Cc2ccc(O)cc2)NC1=O [UPAR-274, Ac-Asp-Leu-[Cys-Arg-nle-Tyr-Phe-Pro-Ala-Ile-Leu-Cys]-NH2] (Ac-DLCR[dNle]YFPAILC-NH2; disulfide 3-12)
